Molecules are shown by their SMILES.

In the assay the test system is T1, LkAlt1.
T1 construct: ORF amplified from genomic DNA into pET-28a(+) (NheI/XhoI), His-tagged, E. coli Rosetta2(DE3), Ni-NTA; tag removal not mentioned; about 50 kDa on SDS-PAGE
Nature of the assay: initial velocities at […] nm (lactate dehydrogenase/NADH coupled), global ping-pong fit. The assay is classed as biochemical, Lachancea kluyveri. The conditions noted are these: alanine varied 1-20 mM, α-ketoglutarate 0.05-1.50 mM; Tris-HCl about pH 7, 25°C; pyridoxal 5'-phosphate; ka/kb assigned to substrates by concentration ranges and text.

With `C[C@H](N)C(=O)O` [alanine], the “ka” value was 4.88 mM. A word on the Km: it is the substrate concentration at which the rate is half of its maximum. Take `O=C(O)CCC(=O)C(=O)O` [α-ketoglutarate]: the Km was 220 µM.

Source of the values: publication PMC5483587 (Frontiers in Microbiology, 2017).
